Source: ChEMBL document CHEMBL2203205 (Eur J Med Chem, 2012)

Legend:
[1] = target: Nitric oxide synthase, inducible (Homo sapiens, UniProt P35228); assay: Inhibition of recombinant human iNOS expressed in baculovirus-infected Sf9 cells assessed as conversion of [3H]-larginine to [3H]-L-citrulline preincubated for 15 mins measured after 45 mins by liquid scintillation counting
[2] = target: Nitric oxide synthase 1 (Homo sapiens, UniProt P29475); assay: Inhibition of recombinant human nNOS expressed in baculovirus-infected Sf9 cells assessed as conversion of [3H]-larginine to [3H]-L-citrulline preincubated for 15 mins measured after 45 mins by liquid scintillation counting
[3] = target: Nitric oxide synthase 3 (Homo sapiens, UniProt P29474); assay: Inhibition of recombinant human eNOS expressed in baculovirus-infected Sf9 cells assessed as conversion of [3H]-larginine to [3H]-L-citrulline preincubated for 15 mins measured after 45 mins by liquid scintillation counting
[4] = target: Substance-P receptor (Homo sapiens) (UniProt P25103); conditions: U-373MG ATCC
Substance-P receptor (Homo sapiens), sequence (P25103 whole entry): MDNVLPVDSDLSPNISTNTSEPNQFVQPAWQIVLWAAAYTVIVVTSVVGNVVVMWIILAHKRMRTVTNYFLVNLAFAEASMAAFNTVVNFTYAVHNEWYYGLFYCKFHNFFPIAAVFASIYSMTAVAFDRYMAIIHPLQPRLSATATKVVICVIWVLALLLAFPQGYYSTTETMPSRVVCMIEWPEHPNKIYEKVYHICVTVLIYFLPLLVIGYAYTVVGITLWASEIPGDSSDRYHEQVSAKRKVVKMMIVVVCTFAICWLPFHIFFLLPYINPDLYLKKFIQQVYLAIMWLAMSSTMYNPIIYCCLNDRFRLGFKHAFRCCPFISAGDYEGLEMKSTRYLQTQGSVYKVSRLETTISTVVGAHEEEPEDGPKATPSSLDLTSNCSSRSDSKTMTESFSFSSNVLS
Description: Displacement of [125I]BH-SP from NK1 receptor in human U-373MG cells at 10 uM after 60 mins

Nitric oxide synthase 1, sequence (P29475 whole entry): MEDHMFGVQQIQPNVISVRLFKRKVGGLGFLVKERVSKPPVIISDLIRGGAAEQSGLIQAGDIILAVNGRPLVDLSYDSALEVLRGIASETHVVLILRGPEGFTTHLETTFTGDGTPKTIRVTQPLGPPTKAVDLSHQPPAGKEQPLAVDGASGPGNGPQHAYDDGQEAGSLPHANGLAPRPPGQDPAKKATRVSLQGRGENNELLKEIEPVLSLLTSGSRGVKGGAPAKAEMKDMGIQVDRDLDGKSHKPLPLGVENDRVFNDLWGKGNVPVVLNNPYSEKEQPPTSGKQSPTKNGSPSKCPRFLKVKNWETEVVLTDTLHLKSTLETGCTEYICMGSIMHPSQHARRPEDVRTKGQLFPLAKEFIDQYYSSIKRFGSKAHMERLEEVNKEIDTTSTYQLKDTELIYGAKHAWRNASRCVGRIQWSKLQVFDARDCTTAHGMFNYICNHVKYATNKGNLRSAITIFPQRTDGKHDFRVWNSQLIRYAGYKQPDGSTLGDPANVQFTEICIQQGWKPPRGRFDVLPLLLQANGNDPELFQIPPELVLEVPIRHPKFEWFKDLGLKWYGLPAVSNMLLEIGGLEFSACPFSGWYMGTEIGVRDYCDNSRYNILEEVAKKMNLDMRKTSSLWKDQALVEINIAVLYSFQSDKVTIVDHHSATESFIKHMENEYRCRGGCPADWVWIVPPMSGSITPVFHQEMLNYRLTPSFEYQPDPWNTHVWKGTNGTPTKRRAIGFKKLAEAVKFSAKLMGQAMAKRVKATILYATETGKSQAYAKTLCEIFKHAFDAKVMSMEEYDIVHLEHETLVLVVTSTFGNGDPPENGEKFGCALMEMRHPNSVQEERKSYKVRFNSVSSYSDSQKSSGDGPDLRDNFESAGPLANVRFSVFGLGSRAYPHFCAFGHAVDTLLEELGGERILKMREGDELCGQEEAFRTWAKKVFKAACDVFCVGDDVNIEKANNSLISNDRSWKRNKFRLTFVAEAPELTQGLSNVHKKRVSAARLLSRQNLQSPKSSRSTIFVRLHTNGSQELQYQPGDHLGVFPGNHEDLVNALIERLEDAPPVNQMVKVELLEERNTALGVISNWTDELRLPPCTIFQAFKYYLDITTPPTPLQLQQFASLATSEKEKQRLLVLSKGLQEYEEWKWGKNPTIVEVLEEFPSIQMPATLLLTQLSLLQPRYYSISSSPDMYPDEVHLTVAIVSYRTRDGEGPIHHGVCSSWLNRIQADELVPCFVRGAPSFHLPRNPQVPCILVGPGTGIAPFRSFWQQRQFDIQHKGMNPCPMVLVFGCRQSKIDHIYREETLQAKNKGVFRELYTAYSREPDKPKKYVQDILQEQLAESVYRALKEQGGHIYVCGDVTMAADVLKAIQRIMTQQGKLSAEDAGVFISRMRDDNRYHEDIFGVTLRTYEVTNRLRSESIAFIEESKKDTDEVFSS
Nitric oxide synthase, inducible, sequence (P35228 whole entry, looked up): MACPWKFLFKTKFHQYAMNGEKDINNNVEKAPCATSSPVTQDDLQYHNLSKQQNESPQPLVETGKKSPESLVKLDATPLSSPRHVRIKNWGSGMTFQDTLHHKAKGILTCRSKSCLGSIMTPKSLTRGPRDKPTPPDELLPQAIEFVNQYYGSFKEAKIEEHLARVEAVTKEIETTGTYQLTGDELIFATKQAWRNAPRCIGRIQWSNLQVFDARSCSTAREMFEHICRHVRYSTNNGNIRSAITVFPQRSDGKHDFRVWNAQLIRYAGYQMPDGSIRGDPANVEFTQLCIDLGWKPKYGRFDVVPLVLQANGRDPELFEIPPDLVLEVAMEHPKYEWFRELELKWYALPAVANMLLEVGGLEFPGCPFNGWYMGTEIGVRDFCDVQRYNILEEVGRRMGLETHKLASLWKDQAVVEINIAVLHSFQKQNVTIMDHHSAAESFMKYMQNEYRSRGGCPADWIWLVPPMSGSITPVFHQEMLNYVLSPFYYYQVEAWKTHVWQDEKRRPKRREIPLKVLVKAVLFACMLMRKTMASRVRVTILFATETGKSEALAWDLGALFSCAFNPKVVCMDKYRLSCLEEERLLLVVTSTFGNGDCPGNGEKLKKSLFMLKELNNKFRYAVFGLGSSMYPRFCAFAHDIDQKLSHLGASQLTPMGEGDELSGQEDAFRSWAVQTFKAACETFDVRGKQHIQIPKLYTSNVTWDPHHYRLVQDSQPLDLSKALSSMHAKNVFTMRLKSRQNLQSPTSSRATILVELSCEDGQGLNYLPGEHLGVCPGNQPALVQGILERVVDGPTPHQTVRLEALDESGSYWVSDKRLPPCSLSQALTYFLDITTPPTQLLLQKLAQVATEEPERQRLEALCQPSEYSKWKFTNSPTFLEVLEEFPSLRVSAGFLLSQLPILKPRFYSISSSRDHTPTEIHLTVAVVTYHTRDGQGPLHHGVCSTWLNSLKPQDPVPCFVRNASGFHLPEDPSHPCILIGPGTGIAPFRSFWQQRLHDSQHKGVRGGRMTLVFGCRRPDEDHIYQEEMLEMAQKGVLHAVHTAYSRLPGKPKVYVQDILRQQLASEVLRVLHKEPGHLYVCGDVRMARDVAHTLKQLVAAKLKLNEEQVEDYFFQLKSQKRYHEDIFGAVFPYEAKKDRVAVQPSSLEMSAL
Nitric oxide synthase 3, sequence (P29474 whole entry, looked up): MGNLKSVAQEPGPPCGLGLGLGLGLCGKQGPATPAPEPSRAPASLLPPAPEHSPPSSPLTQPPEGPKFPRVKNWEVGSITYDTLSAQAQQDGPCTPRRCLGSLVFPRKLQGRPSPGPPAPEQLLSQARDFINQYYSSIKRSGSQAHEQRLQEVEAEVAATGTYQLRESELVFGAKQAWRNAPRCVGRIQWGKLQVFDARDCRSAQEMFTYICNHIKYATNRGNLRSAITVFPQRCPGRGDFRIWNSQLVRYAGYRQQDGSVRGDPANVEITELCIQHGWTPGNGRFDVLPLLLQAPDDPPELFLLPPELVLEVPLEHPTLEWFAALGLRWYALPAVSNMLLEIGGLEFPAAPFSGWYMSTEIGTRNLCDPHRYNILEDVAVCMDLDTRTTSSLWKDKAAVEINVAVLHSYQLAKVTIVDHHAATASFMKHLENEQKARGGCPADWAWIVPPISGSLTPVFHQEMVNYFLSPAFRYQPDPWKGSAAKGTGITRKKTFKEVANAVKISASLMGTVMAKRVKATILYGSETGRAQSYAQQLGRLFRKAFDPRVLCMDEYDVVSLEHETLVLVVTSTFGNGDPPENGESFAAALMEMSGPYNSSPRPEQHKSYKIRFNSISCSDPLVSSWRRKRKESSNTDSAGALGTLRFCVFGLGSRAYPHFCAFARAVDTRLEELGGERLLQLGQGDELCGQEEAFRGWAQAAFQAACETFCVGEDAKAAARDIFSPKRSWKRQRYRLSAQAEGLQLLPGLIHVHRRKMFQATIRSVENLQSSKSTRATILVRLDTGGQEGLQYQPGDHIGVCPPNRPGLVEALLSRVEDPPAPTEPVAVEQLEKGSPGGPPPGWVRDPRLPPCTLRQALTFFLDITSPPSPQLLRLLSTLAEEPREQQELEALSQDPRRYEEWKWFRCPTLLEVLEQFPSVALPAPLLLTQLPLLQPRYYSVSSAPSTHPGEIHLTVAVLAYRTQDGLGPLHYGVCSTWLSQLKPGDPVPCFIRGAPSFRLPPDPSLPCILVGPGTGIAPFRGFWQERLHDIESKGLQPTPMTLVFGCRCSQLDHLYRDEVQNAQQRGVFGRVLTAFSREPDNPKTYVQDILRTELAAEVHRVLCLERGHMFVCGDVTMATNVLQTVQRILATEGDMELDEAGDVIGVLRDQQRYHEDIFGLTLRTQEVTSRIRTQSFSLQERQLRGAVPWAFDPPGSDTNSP

| IC50 [1] | IC50 [2] | IC50 [3] | inhibition [4] | Compound |
| --- | --- | --- | --- | --- |
| 4870 nM | 100 nM | – | – | CNC1CCC(N2CCc3cc(NC(=N)c4cccs4)ccc32)CC1 (trans isomer) |
| 770 nM | 620 nM | 10500 nM | – | N=C(Nc1ccc2c(c1)CCN2C(=O)CN1CCCC1)c1cccs1 |
| 1580 nM | 160 nM | 39300 nM | – | N=C(Nc1ccc2c(c1)CCN2C1CCN(CCO)CC1)c1cccs1 |
| 4080 nM | 200 nM | – | – | CNC1CCC(N2CCc3cc(NC(=N)c4cccs4)ccc32)CC1 (cis isomer) |
| 4070 nM | 40 nM | 11400 nM | – | CN(C)CCN1CCc2cc(NC(=N)c3cccs3)ccc21 |
| 1800 nM | 910 nM | 51700 nM | – | CC1CC(N2CCc3cc(NC(=N)c4cccs4)ccc32)CCN1 (single isomer, unassigned; (+)) |
| – | 350 nM | 10100 nM | – | N=C(Nc1ccc2c(c1)CCN2CCNCCO)c1cccs1 |
| 4750 nM | 370 nM | 36700 nM | – | CC1CC(N2CCc3cc(NC(=N)c4cccs4)ccc32)CCN1 (trans isomer) |
| 52200 nM | 330 nM | 94000 nM | – | N=C(Nc1ccc2c(c1)CCN2C1CCCNC1)c1cccs1 (racemic) |
| 410 nM | 120 nM | 37300 nM | – | N=C(Nc1ccc2c(c1)CCN2CCN1CCCC1)c1cccs1 |
| 1170 nM | 690 nM | 124000 nM | – | CC1CC(N2CCc3cc(NC(=N)c4cccs4)ccc32)CCN1 (cis isomer) |
| 415000 nM | 110 nM | 40500 nM | – | N=C(Nc1ccc2c(c1)CCN2C1CCNCC1)c1cccs1 [listing 1 of 2 here] |
| 4670 nM | 200 nM | 58200 nM | – | CN1CCC(N2CCc3cc(NC(=N)c4cccs4)ccc32)CC1 |
| – | – | – | 12% | N=C(Nc1ccc2c(c1)CCN2C1CCNCC1)c1cccs1 [listing 2 of 2 here] |
| 1090 nM | 710 nM | 53700 nM | – | CC1CC(N2CCc3cc(NC(=N)c4cccs4)ccc32)CCN1 (stereo in doubt) |
